Data from patent US6541463B1, “Inhibitors of type 5 and type 3 17β-hydroxysteroid dehydrogenase and methods for their use” (Endorecherche, Inc., priority 1998, dated 2003).
Read-outs that look alike come from different tables or passages of the source.

Legend:
[1] = system: Shionogi mouse mammary carcinoma cells; test: Antiandrogenic activity: inhibition of DHT-induced proliferation of Shionogi cells; type: cell-based
In short: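 Androgen-sensitive Shionogi mouse mammary carcinoma cells, 20 000/well, were grown 10–12 days in charcoal-stripped serum with increasing agent concentrations in triplicate, with medium changed every 3–4 days. Cell number was counted directly, and ED50 was derived by least-square regression.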

estrogen receptor = molecular target: T1, estrogen receptor (Rattus norvegicus, UniProt P06211); test: Estrogen receptor (ER) assay: inhibition of [3H]E2 binding, uterine cytosol
T1 construct: from tissue; host or cells: uterine cytosol of gonadectomized female Sprague-Dawley rats
T1 sequence (P06211 1-600): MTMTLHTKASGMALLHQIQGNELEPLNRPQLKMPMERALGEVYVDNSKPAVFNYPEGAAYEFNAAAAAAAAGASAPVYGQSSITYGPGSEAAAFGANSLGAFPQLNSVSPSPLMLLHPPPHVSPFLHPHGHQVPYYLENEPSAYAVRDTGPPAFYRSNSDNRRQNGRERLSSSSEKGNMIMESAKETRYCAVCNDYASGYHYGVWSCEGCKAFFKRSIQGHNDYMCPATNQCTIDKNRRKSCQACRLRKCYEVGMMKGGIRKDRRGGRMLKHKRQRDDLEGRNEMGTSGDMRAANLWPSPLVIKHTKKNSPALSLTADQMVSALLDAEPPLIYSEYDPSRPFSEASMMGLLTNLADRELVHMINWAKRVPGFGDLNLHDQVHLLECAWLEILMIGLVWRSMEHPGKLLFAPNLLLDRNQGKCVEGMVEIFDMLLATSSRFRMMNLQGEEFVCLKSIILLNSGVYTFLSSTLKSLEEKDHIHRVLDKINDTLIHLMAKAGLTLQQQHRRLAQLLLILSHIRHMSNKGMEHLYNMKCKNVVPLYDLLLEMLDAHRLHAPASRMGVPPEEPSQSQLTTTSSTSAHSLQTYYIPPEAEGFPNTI
Experimental: Female Sprague-Dawley rats (Crl: CD(SD)Br) weighing 200-300 g were obtained from Charles-River Inc. (St-Constant, Québec, Canada). The rats were gonadectomized under general anesthesia (Isoflurane) and killed by cervical dislocation 24 hours later. The uteri were rapidly removed, dissected free from adhering tissue and frozen on dry-ice. Uteri were kept at −80° C. until assay. All subsequent steps were performed at 0-4° C. Uteri were homogenized in 10 vol (wt/vol) of buffer A (25 mM Tris-HCI, 1.5 mM EDTA disodium salt, 10 mM α-monothioglycerol, 10% glycerol, and 10 mM sodium molybdate, pH 7.4), using a Polytron PT-10 homogenizer (Brinkman Instruments, Canada) at a setting of 5 for three periods of 10 sec, with intervals of 10 sec for cooling. The homogenate was then centrifuged at 105,000×g for 60 min in a Beckman L5-65 ultracentrifuge (Fullerton, Calif.). The protein concentration of the cytosol fraction was measured according to the method of Bradford (Anal. Biochem. 72: 248-254, 1976), using bovine serum albumin as standard.
Estrogen binding was measured using the dextran-coated charcoal adsorption technique as described previously (Asselin et al., Endocrinology, 101: 666-671, 1977; Asselin and Labrie, J. Steroid Biochem., 9: 1079-1082, 1978). Briefly, [^3H]E2 solubilized in ethanol were diluted into buffer A. Aliquots of uterine cytosol preparation (0.1 ml) were incubated with 5 nM [^3H]E2 (˜200,000 cpm, 0.1 ml) in the presence or absence of the indicated concentrations of unlabeled compounds (0.1 ml, prepared in buffer A containing 10% ethanol) for 3 h at room temperature. Unbound steroids were then separated by incubation for 15 min at 0-4° C. with 0.3 ml 0.5% Norit-A and 0.05% Dextran T-70 in buffer B (1.5 mM EDTA disodium salt, 10 mM monothioglycerol, and 10 mM Tris-HCI, pH 7.4) and centrifuged at 3,000×g for 15 min. Aliquots of the supernatant (0.3 ml) were removed for radioactivity measurement.

[2] = Table 4′, DHT-induced proliferation, E^−6 (10^−6 M)
[3] = Table 4′, DHT-induced proliferation, E^−7

| Structure (SMILES) | Antiandrogenic Activity Shionogi, DHT E^−6 [1, 2] [%] | Antiandrogenic Activity Shionogi, DHT E^−7 [1, 3] | % Inhibition Estrogen Receptor E^−6 (estrogen receptor; Table 4′, E^−6) [%] | % Inhibition Estrogen Receptor E^−8 (estrogen receptor; Table 4′, E^−8) [%] | further results |
| --- | --- | --- | --- | --- | --- |
| CC1CCC2(CCC3C4CCc5ccccc5C4CCC32C)OC1=O (stereo not drawn) [EM-1025] | −25 | −14% | 4 | 1 |  |
| CC12CCC3c4ccc(F)cc4CCC3C1CCC21CCCC(=O)O1 (stereo not drawn) [EM-1170-CS] | −38 | 15% | 0 | 0 |  |
| CC1(C)CCC2(CCC3C4CCc5c(cc(Cl)c(O)c5Cl)C4CCC32C)OC1=O (stereo not drawn) [EM-1391-CS] | −19 | 0% | 0 | 0 |  |
| CCC[C@@H]1CC2C3C=CC4=CC(=O)CC[C@]4(C)C3CC[C@]2(C)C1=O (stereo partly drawn) [EM-1097] |  |  |  |  | Antiandrogenic Activity Shionogi, DHT E^−6 ([1]; with DHT, E^−6): −71; Antiandrogenic Activity Shionogi, DHT E^−7 ([1]; with DHT, E^−7): −3; % Inhibition Estrogen Receptor E^−6 (estrogen receptor; E^−6): 1%; % Inhibition Estrogen Receptor E^−8 (estrogen receptor; E^−8): 0% |
| CC1(C)CCC2(CCC3C4CCc5cc(OS(C)(=O)=O)ccc5C4CCC32C)OC1=O (stereo not drawn) [EM-1365-CS] | −53 | −17% | 4 | 2 |  |
| CN(C)C(=O)c1ccc2c(c1)CCC1C2CCC2(C)C1CCC21CCC(C)(C)C(=O)O1 (stereo not drawn) [EM-1403] | −54 | 0% | 0 | 0 | inhibition at 1 µM ([1]; Mus musculus, 10^−6 M inhibitor, negative number = stimulation reduced, read-out: percentage of inhibition of DHT-induced proliferation of Shionogi cells): 54% |
| CCCC(=O)OC1(C(C)=O)CCC2C3C=C(C)C4=CC(=O)CC(C)C4(C)C3CCC21C (stereo not drawn) [CS-245] |  |  |  |  | Antiandrogenic Activity Shionogi, DHT ([1]; E^−6): −109; Antiandrogenic Activity Shionogi, DHT ([1]; E^−7): −106; IC50 ([1]; Mus musculus, read-out: Antiandrogenic Activity Shionogi, DHT [IC50]): 12 nM; % Inhibition Estrogen Receptor (estrogen receptor; E^−6): 2%; % Inhibition Estrogen Receptor (estrogen receptor; E^−8): 0% |
| CCOc1ccc2c(c1)CCC1C2CC[C@@]2(C)C1CC[C@@]21CCC(C)(C)C(=O)O1 (stereo partly drawn) [EM-1369, 3-Ethoxy-1,3,5(10)-estratrien-17(R)-spiro-2′-(5′,5′-dimethyl-6′-oxo)-tetrahydropyran] | −24 | 0% | 0 | 2 |  |
| CC1(C)CCC2(CCC3C4CCc5c(cc(Cl)c(OS(C)(=O)=O)c5Cl)C4CCC32C)OC1=O (stereo not drawn) [EM-1392-CS] | −75 | 0% | 0 | 0 |  |
| CCC[C@]1(F)CC2C3C=CC4=CC(=O)CC[C@]4(C)C3CC[C@]2(C)C1=O (stereo partly drawn) [EM-1183] |  |  |  |  | Antiandrogenic Activity Shionogi, DHT E^−6 ([1]; with DHT, E^−6): −51; Antiandrogenic Activity Shionogi, DHT E^−7 ([1]; with DHT, E^−7): 0; % Inhibition Estrogen Receptor E^−6 (estrogen receptor; E^−6): 0%; % Inhibition Estrogen Receptor E^−8 (estrogen receptor; E^−8): 0% |
| COC(=O)CCCC(=O)O[C@]1(C(C)=O)CC[C@H]2[C@@H]3C=C(C)C4=CC(=O)CC[C@]4(C)[C@H]3CC[C@@]21C [EM-1007, 6-Methyl-4,6-pregnadien-17α-ol-3,20-dione 4′-Carbomethoxybutyrate] |  |  |  |  | Antiandrogenic Activity Shionogi, DHT ([1]; E^−6): −76; Antiandrogenic Activity Shionogi, DHT ([1]; E^−7): −14; % Inhibition Estrogen Receptor (estrogen receptor; E^−6): 0%; % Inhibition Estrogen Receptor (estrogen receptor; E^−8): 0% |
| CN(C)CCOc1ccc2c(c1)CCC1C2CCC2(C)C1CCC21CCC(C)(C)C(=O)O1 (stereo not drawn) [EM-1389-CS] | −103 | −94% | 0 | 0 |  |
| C[C@]12CCC3c4ccc(O)cc4CCC3C1CC[C@@]21CCCC(=O)O1 (stereo partly drawn) [EM-919, 1,3,5(10)-estratrien-3-ol-17(R)-spiro-2′(6′-oxo)tetrahydropyran] | −95 | +38% |  |  | IC50 ([1]; Mus musculus, Table 4′, bracketed values, read-out: Antiandrogenic Activity Shionogi, DHT [IC50 (nM)]): 609 nM; % Inhibition Estrogen Receptor *E^−5 (estrogen receptor; Table 4′, starred values, E^−5): 90* %; % Inhibition Estrogen Receptor *E^−7 (estrogen receptor; Table 4′, starred values, E^−7): 07* % |
| CC(=O)[C@@]1(OC(=O)CCCCF)CCC2C3C=C(C)C4=CC(=O)CC[C@]4(C)C3CC[C@@]21C (stereo partly drawn) [EM-1195-CS] |  |  |  |  | Antiandrogenic Activity Shionogi, DHT ([1]; E^−6): −110; Antiandrogenic Activity Shionogi, DHT ([1]; E^−7): −105; % Inhibition Estrogen Receptor (estrogen receptor; E^−6): 0%; % Inhibition Estrogen Receptor (estrogen receptor; E^−8): 0% |
| CC1CCC2(CCC3C4CCc5cc(O)c([N+](=O)[O-])cc5C4CCC32C)OC1=O [EM-1131, 2-Nitro-1,3,5(10)-estratrien-3-ol-17(R)-spiro-2′-(5′-methyl-6′-oxo)tetrahydropyran] | −47 | −15% | 3 | 5 |  |
| COc1ccc2c(c1)C(=O)CC1C3CCC4(CCC(C)(C)C(=O)O4)C3(C)CCC21O (stereo not drawn) [EM-1386] | −27 | 0% | 0 | 3 |  |
| CCS(=O)(=O)Oc1ccc2c(c1)CCC1C2CCC2(C)C1CCC21CCC(C)(C)C(=O)O1 (stereo not drawn) [EM-1364-CS] | −59 | −11% | 5 | 0 |  |
| COc1c(Br)cc2c(c1Br)CCC1C2CCC2(C)C1CCC21CCC(C)(C)C(=O)O1 (stereo not drawn) [EM-1385-CS] | −61 | 0% | 4 | 2 |  |
| CC(=O)O[C@]1(C(=O)N(C)C)CCC2C3C=C(C)C4=CC(=O)CC[C@]4(C)C3CC[C@@]21C (stereo partly drawn) [EM-1159] |  |  |  |  | Antiandrogenic Activity Shionogi, DHT ([1]; E^−6): −71; Antiandrogenic Activity Shionogi, DHT ([1]; E^−7): 1; % Inhibition Estrogen Receptor (estrogen receptor; E^−6): 1%; % Inhibition Estrogen Receptor (estrogen receptor; E^−8): 0% |
| C[C@]12CCC(=O)C=C1C=C[C@@H]1[C@@H]2CC[C@]2(C)C(=O)C3(CC4CC4C3)C[C@@H]12 (stereo partly drawn) [EM-1299, 4,6-Androstadien-3,17-dione-16-spirobicyclo[3′.1′.0′]-hexane] |  |  |  |  | Antiandrogenic Activity Shionogi, DHT E^−6 ([1]; with DHT, E^−6): −27; Antiandrogenic Activity Shionogi, DHT E^−7 ([1]; with DHT, E^−7): 0; % Inhibition Estrogen Receptor E^−6 (estrogen receptor; E^−6): 3%; % Inhibition Estrogen Receptor E^−8 (estrogen receptor; E^−8): 3% |
| CSCCOc1ccc2c(c1)CCC1C2CCC2(C)C1CCC21CCCC(=O)O1 [CS-242, 3-Methylthioethyloxy-1,3,5(10)-estratrien-17(R)-spiro-2′-(6′-oxo) Tetrahydropyran] | −66 | 9% | 0 | 0 |  |
| COc1ccc(CC(=O)O[C@]2(C(C)=O)CCC3C4C=C(C)C5=CC(=O)C=C[C@]5(C)C4CC[C@@]32C)cc1 (stereo partly drawn) [EM-1291] |  |  |  |  | Antiandrogenic Activity Shionogi, DHT ([1]; E^−6): −48; Antiandrogenic Activity Shionogi, DHT ([1]; E^−7): −13; % Inhibition Estrogen Receptor (estrogen receptor; E^−6): 0%; % Inhibition Estrogen Receptor (estrogen receptor; E^−8): 0% |
| C[C@]12CCC3c4cc([N+](=O)[O-])c(O)cc4CCC3C1CC[C@@]21CCCC(=O)O1 (stereo partly drawn) [EM-1124, 2-Nitro-1,3,5(10)-estraetriene-3-ol-17(R)-spiro-2′-(6′-oxo)tetrahydropyran] | −65 | 0% | 0 | 0 |  |
| COCCOc1cc2c(cc1C#N)C1CC[C@@]3(C)C(CC[C@@]34CCC(C)(C)C(=O)O4)C1CC2 (stereo partly drawn) [EM-1396] | −29 | −16% | 2 | 3 |  |
